The record followed here is US20250376469A1, “INDOLIZINE DERIVATIVES FOR TREATING TRPM3-MEDIATED DISORDERS” (Katholieke Universiteit Leuven, priority 2022, published 2025).

SMILES strings stand for the structures.

T1 sequence (J9SQF3 1-1709 isoform J9SQF3-12): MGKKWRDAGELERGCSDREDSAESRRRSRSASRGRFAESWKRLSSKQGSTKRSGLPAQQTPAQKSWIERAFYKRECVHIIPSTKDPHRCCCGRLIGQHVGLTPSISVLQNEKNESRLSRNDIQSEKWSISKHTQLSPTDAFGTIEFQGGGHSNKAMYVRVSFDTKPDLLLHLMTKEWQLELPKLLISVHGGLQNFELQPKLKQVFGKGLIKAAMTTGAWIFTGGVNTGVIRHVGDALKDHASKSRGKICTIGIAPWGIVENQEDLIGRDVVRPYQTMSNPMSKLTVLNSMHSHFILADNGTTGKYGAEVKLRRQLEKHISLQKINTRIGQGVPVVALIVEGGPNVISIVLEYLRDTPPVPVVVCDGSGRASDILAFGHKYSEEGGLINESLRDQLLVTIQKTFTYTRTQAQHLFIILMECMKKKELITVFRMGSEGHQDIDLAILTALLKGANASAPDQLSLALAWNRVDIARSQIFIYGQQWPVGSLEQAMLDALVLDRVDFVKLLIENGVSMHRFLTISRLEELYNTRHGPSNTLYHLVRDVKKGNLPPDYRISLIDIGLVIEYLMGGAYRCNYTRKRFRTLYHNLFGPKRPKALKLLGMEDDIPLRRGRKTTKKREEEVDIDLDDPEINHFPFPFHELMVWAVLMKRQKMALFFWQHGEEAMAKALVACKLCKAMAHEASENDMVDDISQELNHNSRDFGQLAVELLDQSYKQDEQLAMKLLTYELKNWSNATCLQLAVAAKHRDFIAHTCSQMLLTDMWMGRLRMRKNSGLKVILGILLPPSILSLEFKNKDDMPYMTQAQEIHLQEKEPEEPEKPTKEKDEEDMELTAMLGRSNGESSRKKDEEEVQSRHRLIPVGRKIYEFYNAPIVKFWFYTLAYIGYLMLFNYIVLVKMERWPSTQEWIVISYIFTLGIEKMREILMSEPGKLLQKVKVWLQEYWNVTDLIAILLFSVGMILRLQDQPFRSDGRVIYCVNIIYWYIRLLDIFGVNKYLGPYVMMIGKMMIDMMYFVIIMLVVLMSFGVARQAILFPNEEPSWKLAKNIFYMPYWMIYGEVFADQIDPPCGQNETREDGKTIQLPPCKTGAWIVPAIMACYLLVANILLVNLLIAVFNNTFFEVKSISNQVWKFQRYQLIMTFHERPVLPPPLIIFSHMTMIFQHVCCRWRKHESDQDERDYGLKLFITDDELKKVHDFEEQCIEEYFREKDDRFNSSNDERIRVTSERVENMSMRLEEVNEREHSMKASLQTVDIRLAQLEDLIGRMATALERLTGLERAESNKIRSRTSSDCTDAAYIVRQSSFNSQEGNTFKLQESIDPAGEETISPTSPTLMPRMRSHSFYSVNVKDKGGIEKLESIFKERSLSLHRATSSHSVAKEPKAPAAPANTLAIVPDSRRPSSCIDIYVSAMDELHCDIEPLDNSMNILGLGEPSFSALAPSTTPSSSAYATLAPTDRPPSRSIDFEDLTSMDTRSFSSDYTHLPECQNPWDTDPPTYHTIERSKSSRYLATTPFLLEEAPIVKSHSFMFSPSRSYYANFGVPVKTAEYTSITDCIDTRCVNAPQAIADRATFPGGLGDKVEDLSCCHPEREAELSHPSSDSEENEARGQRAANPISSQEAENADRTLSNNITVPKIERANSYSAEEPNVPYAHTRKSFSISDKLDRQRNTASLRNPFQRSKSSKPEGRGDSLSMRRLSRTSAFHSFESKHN

The experiment has as its target T1, mouse TRPM3α2 (mTRPM3) ion channel (Mus musculus, UniProt J9SQF3).
T1 construct: expressed in transfected cells; host or cells: flip-in HEK293
The experiment in a line: TRPM3 ion channel driven Ca2+ uptake (Fluo-4 AM assay, pregnenolone sulfate stimulated). The format is cell-based. Particulars: TRPM3 overexpressing flip-in HEK293 cells, channel opened with pregnenolone sulfate (PS) 50 μM, 2.4 mM Ca2+. The protocol:
In order to monitor the inhibition of the mouse TRPM3α2 (mTRPM3) ion channel by the compounds of the invention, a cellular system making use of an mTRPM3alpha2 or hTRPM3 overexpressing cell line (flip-in HEK293) was used. The TRPM3 channel was stimulated/opened with Pregnenolone sulfate (PS) (50 μM) which results in Ca^2+ influx.
For mTRPM3, the intracellular Ca^2+ was measured with a Calcium responsive dye, Fluor-4 AM ester (Invitrogen). Cells were cultured until a confluence of 80-90%, washed with Versene (Invitrogen) and detached from the surface by a short incubation with 0.05% Trypsin (Invitrogen). The trypsination process was stopped by the addition of complete cell culture medium (DMEM, glutamax, 10% FCS, NEAA, Pen-Strep). Cells were collected and resuspended in Krebs buffer without Calcium at RT.
Prior the cell seeding (±2000 cells/well into a black, 384 well plate (Greiner)) the diluted compound was added in the assay plate, together with the PS dissolved in Krebs buffer containing Calcium. […] Directly after cell addition the plates were read on an Envision fluorescence reader (Perkin Elmer) by an Excitation of 485 nm and emission at 535 nm.
Channel inhibition was calculated compared to a non-PS stimulated control versus a condition stimulated with PS (50 μM) with vehicle. The ability of a the compounds of the invention to inhibit this activity was determined as: Percentage inhibition=[1−((RFU determined for sample with test compound present−RFU determined for sample with positive control inhibitor) divided by (RFU determined in the presence of vehicle−RFU determined for sample with positive control inhibitor))]*100.
The activities of the Example compounds […] tested are depicted in the table below. The activity ranges A, B and C refer to IC50 values in the Fluo-4 AM assay as follows: […]
What is called IC50 is the concentration needed to halve the response being measured. Lower therefore signals greater potency. The compound `Cc1cc2ccc(OCc3cnccn3)cn2c1C(=O)NC(CO)CC(F)(F)F` (single isomer, unassigned) [Cpd 041 - En2] showed an IC50 above 20 µM.
Next, `Cc1cc2ccc(OCc3c(F)cnn3C)cn2c1C(=O)NC(CO)CC(F)(F)F` (single isomer, unassigned) [Cpd 045 - En1]: 1 to 20 µM; `Cc1cc2ccc(OCc3cnccn3)cn2c1C(=O)NC1(CO)CCNC1=O` (single isomer, unassigned) [Cpd 046 - En2]: above 20 µM; `COc1ncccc1COc1ccc2cc(C)c(C(=O)NC3(CO)CCNC3=O)n2c1` (single isomer, unassigned) [Cpd 038 - En2]: 1 to 20 µM.
Take `Cc1cc2ccc(OCc3cccnc3C(F)(F)F)cn2c1C(=O)NC1(CO)CCNC1=O` (single isomer, unassigned) [Cpd 039 - En2]: the IC50 fell in the range of 1 to 20 µM.
Next, `Cc1cc2ccc(OCc3ccccn3)cn2c1C(=O)NC(C)C(N)=O` (single isomer, unassigned) [Cpd 018 - En1]: 1 to 20 µM; `Cc1cc2ccc(OCC(F)F)cn2c1C(=O)NC1CNCCC1(F)F` (single isomer, unassigned) [Cpd 027 - En2]: above 20 µM.
The result for `Cc1cc2ccc(OCc3ccccc3)cn2c1C(=O)NC(CO)C(N)=O` (single isomer, unassigned) [Cpd 034 - En2] reads below 1 µM; that for `Cc1cc2ccc(OCC3CC3)cn2c1C(=O)NC1(CO)CCNC1=O` (single isomer, unassigned) [Cpd 021 - En2], 1 to 20 µM; that for `Cc1cc2ccc(OCc3ccccn3)cn2c1C(=O)NC(C)(CO)CO` [Cpd 015, N-(1,3-dihydroxy-2-methylpropan-2-yl)-2-methyl-6-[(pyridin-2-yl)methoxy]indolizine-3-carboxamide], below 1 µM.
For `Cc1cc2ccc(OCc3ccccc3)cn2c1C(=O)NC(C)(CO)CC(F)F` (single isomer, unassigned) [Cpd 035 - En2], the IC50 fell in the range of 1 to 20 µM.
On to `Cc1cc2ccc(OCC3CC3)cn2c1C(=O)NC(C)(CO)C(N)=O` (single isomer, unassigned) [Cpd 019 - En2], for which the IC50 was 1 to 20 µM.
As for `CC(=O)C(C)NC(=O)c1c(C)cc2ccc(OCC3CC3)cn12` (single isomer, unassigned) [Cpd 023 - En1], the IC50 was in the range of 1 to 20 µM.
In turn, `Cc1cc2ccc(OCc3ccccn3)cn2c1C(=O)NC1CNCCC1(F)F` (single isomer, unassigned) [Cpd 017 - En2, N-(4,4-difluoropiperidin-3-yl)-2-methyl-6-[(pyridin-2-yl)methoxy]indolizine-3-carboxamide] showed an IC50 above 20 µM.
`Cc1cc2ccc(OCc3ccccn3)cn2c1C(=O)NC1(CO)CCNC1=O` (single isomer, unassigned) [Cpd 016 - En2] yielded an IC50 of 1 to 20 µM.
The result for `CC(=O)C(C)NC(=O)c1c(C)cc2ccc(OCC(F)F)cn12` (single isomer, unassigned) [Cpd 028 - En2] reads above 20 µM.
The result for `Cc1cc2ccc(OCC(F)F)cn2c1C(=O)NC(C)(CO)CO` [Cpd 025, 6-(2,2-difluoroethoxy)-N-(1,3-dihydroxy-2-methylpropan-2-yl)-2-methylindolizine-3-carboxamide] reads 1 to 20 µM.
In turn, `Cc1cc2ccc(OCc3ccccn3)cn2c1C(=O)NC1(CO)CCNC1=O` (single isomer, unassigned) [Cpd 016 - En1] gave an IC50 below 1 µM.
Next, `COCC(C)(CO)NC(=O)c1c(C)cc2ccc(OCc3ccccn3)cn12` (single isomer, unassigned) [Cpd 032 - En1]: 1 to 20 µM; `Cc1cc2ccc(OCc3ccccc3F)cn2c1C(=O)NC(C)(CO)CO` [Cpd 006, N-(1,3-dihydroxy-2-methylpropan-2-yl)-6-[(2-fluorophenyl)methoxy]-2-methylindolizine-3-carboxamide]: below 1 µM.
Next, `Cc1cc2ccc(OCc3ccccc3F)cn2c1C(=O)N[C@@H](C)C(N)=O` [Cpd 002, (2S)-2-({6-[(2-fluorophenyl)methoxy]-2-methylindolizin-3-yl}formamido)propanamide]: below 1 µM.
The result for `Cc1cc2ccc(OCc3cnccn3)cn2c1C(=O)NC(CO)CC(F)(F)F` (single isomer, unassigned) [Cpd 041 - En1] reads 1 to 20 µM; that for `Cc1cc2ccc(OCc3ccccc3F)cn2c1C(=O)N[C@@H](CO)C(N)=O` [Cpd 003, (2S)-2-({6-[(2-fluorophenyl)methoxy]-2-methylindolizin-3-yl}formamido)-3-hydroxypropanamide], below 1 µM.
`Cc1cc2ccc(OCc3ccccc3F)cn2c1C(=O)NC(C)(CO)C(N)=O` (single isomer, unassigned) [Cpd 005 - En2, 2-({6-[(2-fluorophenyl)methoxy]-2-methylindolizin-3-yl}formamido)-3-hydroxy-2-methylpropanamide] gave an IC50 below 1 µM.
As to `Cc1cc2ccc(OCc3cccnc3C(F)(F)F)cn2c1C(=O)NC(CO)CC(F)(F)F` (single isomer, unassigned) [Cpd 044 - En2], the IC50 was below 1 µM.
The compound `Cc1cc2ccc(OCc3cccnc3)cn2c1C(=O)NC1(CO)CCNC1=O` (single isomer, unassigned) [Cpd 037 - En1] displayed an IC50 below 1 µM.
With `Cc1cc2ccc(OCc3ccccn3)cn2c1C(=O)NC(CO)C(N)=O` (single isomer, unassigned) [Cpd 033 - En2], the IC50 is below 1 µM.
Turning to `Cc1cc2ccc(OCc3ccccc3)cn2c1C(=O)NC(CO)C(N)=O` (single isomer, unassigned) [Cpd 034 - En1], the IC50 is below 1 µM.
